Results published in patent US20170101383A1, “DIAMINOTRIAZINE DERIVATIVES AS HERBICIDES” (BASF SE, priority 2014, published 2017).

Tests used:
Assay type in all cases: in vivo
[1] = tested on: Amaranthus retroflexus; assay: greenhouse post-emergence treatment, AMARE; conditions: for pest or weed control at 1000 g/ha / pest or weed control at 500 g/ha: Amaranthus retroflexus, scale 0 to 100, read-out: herbicidal activity against AMARE; for pest or weed control at 1000 g/ha: 1.000 kg/ha; for herbicidal activity against AMARE / pest or weed control at 500 g/ha: 0.500 kg/ha; for herbicidal activity against AMARE: scale 0 to 100
Source text: (§1) The seeds of the test plants were sown separately for each species. For the post-emergence treatment, the test plants were first grown to a height of 3 to 15 cm, depending on the plant habit, and only then treated with the active ingredients which had been suspended or emulsified in water. For this purpose, the test plants were either sown directly and grown in the same containers, or they were first grown separately as seedlings and transplanted into the test containers a few days prior to treatment. Depending on the species, the plants were kept at 10-25° C. or 20-35° C., respectively. The test period extended over 2 to 4 weeks. During this time, the plants were tended, and their response to the individual treatments was evaluated. Evaluation was carried out using a scale from 0 to 100. 100 means no emergence of the plants, or complete destruction of at least the aerial moieties, and 0 means no damage, or normal course of growth. A moderate herbicidal activity is given at values of at least 60, a good herbicidal activity is given at values of at least 70, and a very good herbicidal activity is given at values of at least 85. The plants used in the greenhouse experiments were of the following species: [table]

[2] = tested on: Alopecurus myosuroides; assay: greenhouse pre-emergence treatment, ALOMY; conditions: 0.500 kg/ha, scale 0 to 100
Source text: (§2) The seeds of the test plants were sown separately for each species. For the pre-emergence treatment, the active ingredients, which had been suspended or emulsified in water, were applied directly after sowing by means of finely distributing nozzles. The containers were irrigated gently to promote germination and growth and subsequently covered with transparent plastic hoods until the plants had rooted. This cover caused uniform germination of the test plants, unless this had been impaired by the active ingredients. Depending on the species, the plants were kept at 10-25° C. or 20-35° C., respectively. The test period extended over 2 to 4 weeks. During this time, the plants were tended, and their response to the individual treatments was evaluated. Evaluation was carried out using a scale from 0 to 100. 100 means no emergence of the plants, or complete destruction of at least the aerial moieties, and 0 means no damage, or normal course of growth. A moderate herbicidal activity is given at values of at least 60, a good herbicidal activity is given at values of at least 70, and a very good herbicidal activity is given at values of at least 85. The plants used in the greenhouse experiments were of the following species: [table]

[3] = tested on: Apera spica-venti; assay: greenhouse pre-emergence treatment, APESV; conditions: 0.500 kg/ha, scale 0 to 100
Source text: as §2

[4] = tested on: Setaria faberi; assay: greenhouse pre-emergence treatment, SETFA; conditions: 0.500 kg/ha, scale 0 to 100
Source text: as §2

[5] = tested on: Abutilon theophrasti; assay: greenhouse post-emergence treatment, ABUTH; conditions: scale 0 to 100
Source text: as §1

[6] = tested on: Setaria faberi; assay: greenhouse post-emergence treatment, SETFA; conditions: scale 0 to 100
Source text: as §1

[7] = tested on: Amaranthus retroflexus; assay: greenhouse pre-emergence treatment, AMARE; conditions: 0.500 kg/ha, scale 0 to 100
Source text: as §2

[8] = tested on: Abutilon theophrasti; assay: greenhouse pre-emergence treatment, ABUTH; conditions: 0.500 kg/ha, scale 0 to 100
Source text: as §2

[9] = tested on: Apera spica-venti; assay: greenhouse post-emergence treatment, APESV; conditions: 0.500 kg/ha, scale 0 to 100
Source text: as §1

Row | Compound | herbicidal activity against ALOMY [2] | herbicidal activity against APESV [3] | herbicidal activity against SETFA [4] | herbicidal activity against AMARE [7] | herbicidal activity against APESV [9] | also measured
1 | Nc1nc(Nc2c(F)c(F)c(F)c(F)c2F)nc(N2CCCC2)n1 [Example 6] | very good (a very good herbicidal activity is given at values of at least 85) | very good (a very good herbicidal activity is given at values of at least 85) | very good (a very good herbicidal activity is given at values of at least 85) | – | – | pest or weed control at 1000 g/ha [1]: ≥ 85%; herbicidal activity against ABUTH ([5]; 1.000 kg/ha): very good (a very good herbicidal activity is given at values of at least 85); herbicidal activity against SETFA ([6]; 1.000 kg/ha): very good (a very good herbicidal activity is given at values of at least 85)
2 | Nc1nc(Nc2c(F)c(F)c(F)c(F)c2F)nc(N2CCCCCC2)n1 [Example 7] | good to very good | good to very good | good to very good | – | – | pest or weed control at 1000 g/ha [1]: ≥ 85%; herbicidal activity against ABUTH ([5]; 1.000 kg/ha): very good (a very good herbicidal activity is given at values of at least 85)
3 | CN(Cc1ccccc1)c1nc(N)nc(Nc2c(F)c(F)c(F)c(F)c2F)n1 [Example 10] | – | – | – | – | – | pest or weed control at 1000 g/ha [1]: ≥ 85%; herbicidal activity against ABUTH ([5]; 1.000 kg/ha): very good (a very good herbicidal activity is given at values of at least 85)
4 | CC1CCC(C)N1c1nc(N)nc(Nc2c(F)c(F)c(F)c(F)c2F)n1 (stereo not drawn) [Example 17] | – | very good (a very good herbicidal activity is given at values of at least 85) | very good (a very good herbicidal activity is given at values of at least 85) | very good (a very good herbicidal activity is given at values of at least 85) | – | –
5 | CC1CCCN1c1nc(N)nc(Nc2c(F)c(F)c(F)c(F)c2F)n1 (stereo not drawn) [Example 20] | – | very good (a very good herbicidal activity is given at values of at least 85) | very good (a very good herbicidal activity is given at values of at least 85) | very good (a very good herbicidal activity is given at values of at least 85) | – | –
6 | CC1CCCN1c1nc(N)nc(Nc2c(F)c(F)cc(F)c2F)n1 (stereo not drawn) [Example 21] | very good (a very good herbicidal activity is given at values of at least 85) | – | very good (a very good herbicidal activity is given at values of at least 85) | very good (a very good herbicidal activity is given at values of at least 85) | – | –
7 | CCN(C)c1nc(N)nc(Nc2c(F)c(F)cc(F)c2F)n1 [Example 22] | very good (a very good herbicidal activity is given at values of at least 85) | very good (a very good herbicidal activity is given at values of at least 85) | – | very good (a very good herbicidal activity is given at values of at least 85) | – | –
8 | Nc1nc(Nc2c(F)c(F)c(F)c(F)c2F)nc(N2CCOCC2)n1 [Example 23] | – | very good (a very good herbicidal activity is given at values of at least 85) | – | very good (a very good herbicidal activity is given at values of at least 85) | – | herbicidal activity against ABUTH [8]: very good (a very good herbicidal activity is given at values of at least 85)
9 | COC[C@H]1CCCN1c1nc(N)nc(Nc2c(F)c(F)c(F)c(F)c2F)n1 [Example 25] | good to very good | good to very good | good to very good | good to very good | very good (a very good herbicidal activity is given at values of at least 85) | herbicidal activity against AMARE [1]: very good (a very good herbicidal activity is given at values of at least 85); herbicidal activity against SETFA ([6]; 0.500 kg/ha): very good (a very good herbicidal activity is given at values of at least 85)
10 | COC[C@H]1CCCN1c1nc(N)nc(Nc2c(F)c(F)cc(F)c2F)n1 [Example 26] | very good (a very good herbicidal activity is given at values of at least 85) | very good (a very good herbicidal activity is given at values of at least 85) | very good (a very good herbicidal activity is given at values of at least 85) | very good (a very good herbicidal activity is given at values of at least 85) | very good (a very good herbicidal activity is given at values of at least 85) | herbicidal activity against AMARE [1]: very good (a very good herbicidal activity is given at values of at least 85); herbicidal activity against SETFA ([6]; 0.500 kg/ha): very good (a very good herbicidal activity is given at values of at least 85)
11 | CON(C)c1nc(N)nc(Nc2c(F)c(F)c(F)c(F)c2F)n1 [Example 27] | very good (a very good herbicidal activity is given at values of at least 85) | very good (a very good herbicidal activity is given at values of at least 85) | very good (a very good herbicidal activity is given at values of at least 85) | very good (a very good herbicidal activity is given at values of at least 85) | – | pest or weed control at 500 g/ha [1]: ≥ 85%; herbicidal activity against ABUTH [8]: very good (a very good herbicidal activity is given at values of at least 85); herbicidal activity against ABUTH ([5]; 0.500 kg/ha): very good (a very good herbicidal activity is given at values of at least 85); herbicidal activity against SETFA ([6]; 0.500 kg/ha): very good (a very good herbicidal activity is given at values of at least 85)
12 | COC[C@@H]1CCCN1c1nc(N)nc(Nc2c(F)c(F)c(F)c(F)c2F)n1 [Example 29] | – | very good (a very good herbicidal activity is given at values of at least 85) | – | very good (a very good herbicidal activity is given at values of at least 85) | very good (a very good herbicidal activity is given at values of at least 85) | herbicidal activity against AMARE [1]: very good (a very good herbicidal activity is given at values of at least 85)
13 | COC[C@@H]1CCCN1c1nc(N)nc(Nc2c(F)c(F)cc(F)c2F)n1 [Example 30] | – | very good (a very good herbicidal activity is given at values of at least 85) | – | very good (a very good herbicidal activity is given at values of at least 85) | very good (a very good herbicidal activity is given at values of at least 85) | herbicidal activity against AMARE [1]: very good (a very good herbicidal activity is given at values of at least 85)
14 | COCC1CCCN1c1nc(N)nc(Nc2c(F)c(F)c(F)c(F)c2F)n1 (stereo not drawn) [Example 31] | – | good to very good | – | good to very good | very good (a very good herbicidal activity is given at values of at least 85) | –
15 | COCC1CCCN1c1nc(N)nc(Nc2c(F)c(F)cc(F)c2F)n1 (stereo not drawn) [Example 32] | good to very good | good to very good | good to very good | good to very good | very good (a very good herbicidal activity is given at values of at least 85) | pest or weed control at 500 g/ha [1]: ≥ 85%; herbicidal activity against SETFA ([6]; 0.500 kg/ha): very good (a very good herbicidal activity is given at values of at least 85)
16 | CCN(CC)c1nc(N)nc(Nc2c(F)c(F)cc(F)c2F)n1 [Example 36] | – | good to very good | – | good to very good | very good (a very good herbicidal activity is given at values of at least 85) | pest or weed control at 500 g/ha [1]: ≥ 85%
